“And” between values parts separate entries of the source, which are not always exact repeats. Equal entries are not always repeated. Where two headings read alike, the source gives them in different places.
How the values were obtained:
[1] = rats, brain homogenates, 50 μmol IM exposure; ref Petroianu et al., 2007; cited from earlier work
[2] = Parallel artificial membrane permeability assay; conditions: 100 μM in HBSS
[3] = Renal clearance: urine radioactivity and HPLC of urine; conditions: for percent of the administered dose in urine: guinea pig
[4] = mice dosed with 80 mg/kg; ref Radic et al., 2012; cited from earlier work
[5] = RS194B plasma pharmacokinetics; conditions: for AUC0-t: t = 24 h
[6] = test system: Human cerebral microvascular cells (HCMEC/D3); assay: Brain endothelial cell traversal; conditions: 100 μM in HBSS, apical to basolateral
[7] = RS194B biodistribution / brain penetration in perfused tissues; conditions: for Tissue level at Cmax, percent of administered dose, Brain / Tissue level at Cmax, percent of administered dose, Heart / Tissue level at Cmax, percent of administered dose, Kidney / Tissue level at Cmax, percent of administered dose, Liver / Tissue level at Cmax, percent of administered dose, Lung / Tissue level at Cmax, percent of administered dose, Spleen: total tissue weight
p-gp (MDR1) = p-gp (MDR1) (Homo sapiens, UniProt P08183); assay: MDR1 efflux assessment in MDR1-MDCK and MDCK parent cells; conditions: MDR1-MDCK vs MDCK cells, 100 μM; NFR > 1 = possible p-gp substrate
[8] = dose increase from 10 to 200 mg/kg (20-fold), IV
[9] = guinea pig plasma, single IM dose 50 mg/kg
[10] = guinea pig plasma, single IV dose 10 mg/kg
[11] = guinea pig plasma, single IV dose 50 mg/kg
[12] = guinea pig plasma, single IV dose 100 mg/kg
[13] = guinea pig plasma, single IV dose 200 mg/kg
[14] = guinea pig, after IV administration, post dose

p-gp (MDR1), sequence (P08183 whole entry, looked up): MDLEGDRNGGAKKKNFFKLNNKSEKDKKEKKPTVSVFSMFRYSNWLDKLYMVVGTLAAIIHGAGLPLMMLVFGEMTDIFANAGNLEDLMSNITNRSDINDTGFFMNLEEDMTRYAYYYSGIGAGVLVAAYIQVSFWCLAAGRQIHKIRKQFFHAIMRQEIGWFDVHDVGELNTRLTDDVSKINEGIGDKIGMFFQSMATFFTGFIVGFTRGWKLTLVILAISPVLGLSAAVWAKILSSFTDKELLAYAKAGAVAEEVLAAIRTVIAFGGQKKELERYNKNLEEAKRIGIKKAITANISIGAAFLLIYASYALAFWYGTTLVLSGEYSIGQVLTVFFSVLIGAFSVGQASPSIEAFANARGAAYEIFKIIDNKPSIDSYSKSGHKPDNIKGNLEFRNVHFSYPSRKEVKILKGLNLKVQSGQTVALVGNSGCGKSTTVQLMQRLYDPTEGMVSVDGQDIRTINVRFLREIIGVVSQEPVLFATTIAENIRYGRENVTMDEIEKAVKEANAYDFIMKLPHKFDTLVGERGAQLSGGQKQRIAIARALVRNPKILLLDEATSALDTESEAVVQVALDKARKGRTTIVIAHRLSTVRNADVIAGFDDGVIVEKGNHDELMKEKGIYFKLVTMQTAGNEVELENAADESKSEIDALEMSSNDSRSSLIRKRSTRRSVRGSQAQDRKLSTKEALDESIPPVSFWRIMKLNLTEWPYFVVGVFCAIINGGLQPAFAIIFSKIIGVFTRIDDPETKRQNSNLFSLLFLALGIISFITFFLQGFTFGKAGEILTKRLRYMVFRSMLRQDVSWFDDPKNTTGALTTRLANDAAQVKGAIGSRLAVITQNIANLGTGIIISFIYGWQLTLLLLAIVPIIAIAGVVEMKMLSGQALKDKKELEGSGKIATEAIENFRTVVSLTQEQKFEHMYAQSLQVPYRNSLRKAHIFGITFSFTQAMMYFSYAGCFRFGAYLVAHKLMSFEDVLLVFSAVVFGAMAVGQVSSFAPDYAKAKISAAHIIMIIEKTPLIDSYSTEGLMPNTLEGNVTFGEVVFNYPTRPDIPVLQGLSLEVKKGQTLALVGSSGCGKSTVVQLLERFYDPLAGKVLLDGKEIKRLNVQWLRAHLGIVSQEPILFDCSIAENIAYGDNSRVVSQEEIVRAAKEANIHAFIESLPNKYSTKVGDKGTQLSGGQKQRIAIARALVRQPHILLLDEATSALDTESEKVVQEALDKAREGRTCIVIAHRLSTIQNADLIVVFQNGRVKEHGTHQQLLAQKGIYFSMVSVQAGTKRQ

C[n+]1ccccc1/C=N/O [2-PAM, pralidoxime chloride]
brain/plasma ratio [1]: 0.056

O=C(C=NO)NCCN1CCCCCC1 [RS194B]
effective permeability (Peff), PAMPA ([2]; five hours, 25°C, vs threshold for moderate permeability): < 2 ×10⁻⁶ cm/s
PAMPA diffusion relative to controls ([2]; vs 2-PAM and diazepam positive control): increased diffusion relative to the 2-PAM standard of care, rate of permeation was dramatically lower than the diazepam positive control
radioactivity recovered in the urine ([3]; first 4 h post dose, three highest dose concentrations): over 60%
metabolic stability (HPLC of 0-4 h urine) ([3]; guinea pig urine, one radioactive peak matching RS194B standard): metabolically stable
percent of the administered dose in urine ([3]; IV 10 mg/kg, first 24 h): 11-28%
percent of the administered dose in urine ([3]; IV 50 mg/kg, first 24 hr post dose): 49-77%
percent of the administered dose in urine ([3]; IV 100 mg/kg, first 24 hr post dose): 46-68%
percent of the administered dose in urine ([3]; IV 200 mg/kg, first 24 hr post dose): 59-79%
brain/plasma ratio [4]: 0.3
increase in mean AUC0-t [5, 8]: 32 fold
increase in mean C0 [5, 8]: 25 fold
power regression slope, AUC0-t vs dose ([5]; dose range 10-200 mg/kg IV): 1.13
power regression slope, C0 vs dose ([5]; dose range 10-200 mg/kg IV): 1.09
tmax ([5]; guinea pig plasma, IM 50 mg/kg): 0.5 h
mean apparent distribution half-life (t1/2α), range ([5]; guinea pig plasma, across four IV doses 10-200 mg/kg): 0.78 to 1.5 h
AUC0-inf [5, 9]: 78740 ± 3750 ng·h/mL
C0 [5, 9]: 24900 ± 1440 ng/mL
CL [5, 9]: 10.697 ± 0.522 mL/min/kg
T1/2;β [5, 9]: 8.53 ± 1.49 h
Vd [5, 9]: 7.729 ± 1.08899 L/kg
t1/2α [5, 9]: 0.87 ± 0.13 h
AUC0-t [5, 9]: 73500 ± 2410 ng·h/mL
AUC0-inf [5, 10]: 17530 ± 1350 ng·h/mL
C0 [5, 10]: 6230 ± 150 ng/mL
CL [5, 10]: 9.8418 ± 0.8645 mL/min/kg
T1/2;β [5, 10]: 10.41 ± 1.54 h
Vd [5, 10]: 8.67515 ± 1.99977 L/kg
t1/2α [5, 10]: 0.79 ± 0.07 h
AUC0-t [5, 10]: 15270 ± 1230 ng·h/mL
C0 [5, 11]: 42770 ± 2500 ng/mL
CL [5, 11]: 9.1108 ± 0.4573 mL/min/kg
T1/2;β [5, 11]: 10.68 ± 1.94 h
Vd [5, 11]: 8.37818 ± 1.44868 L/kg
t1/2α [5, 11]: 1.03 ± 0.28 h
AUC0-t [5, 11]: 83800 ± 4050 ng·h/mL
AUC0-inf [5, 12]: 223600 ± 14560 ng·h/mL
C0 [5, 12]: 93180 ± 3400 ng/mL
CL [5, 12]: 7.5982 ± 0.4475 mL/min/kg
T1/2;β [5, 12]: 12.87 ± 2.16 h
Vd [5, 12]: 8.32203 ± 1.44265 L/kg
t1/2α [5, 12]: 0.78 ± 0.05 h
AUC0-t [5, 12]: 188050 ± 11100 ng·h/mL
AUC0-inf [5, 13]: 530830 ± 57860 ng·h/mL
C0 [5, 13]: 157660 ± 4340 ng/mL
CL [5, 13]: 6.6752 ± 0.7335 mL/min/kg
T1/2;β [5, 13]: 9.75 ± 1.83 h
Vd [5, 13]: 5.80208 ± 1.32987 L/kg
t1/2α [5, 13]: 1.50 ± 0.20 h
AUC0-t [5, 13]: 488520 ± 63160 ng·h/mL
plasma t1/2 ([5]; guinea pig, as summarised in abstract): ~1 h
permeability across HCMEC/D3 monolayer relative to controls [6]: permeability was improved over that of 2-PAM, but was lower than that of a known permeable compound
brain/ plasma ([7]; guinea pig, IM 50 mg/kg, 0.08 hr (brain Cmax)): 0.058 and 0.06 ± 0.002
brain/ plasma ([7]; guinea pig, IM 50 mg/kg, 0.25 hr): 0.04 ± 0.006
brain/ plasma ([7]; guinea pig, IM 50 mg/kg, 0.5 hr): 0.03 ± 0.002
brain/ plasma ([7]; guinea pig, IM 50 mg/kg, 1 hr): 0.02 ± 0.010
brain/ plasma ([7]; guinea pig, IM 50 mg/kg, 2 hr): 0.02 ± 0.001
brain/ plasma ([7]; guinea pig, IM 50 mg/kg, 4 hr): 0.06 ± 0.005
brain/ plasma ([7]; guinea pig, IM 50 mg/kg, 8 hr): 0.08 ± 0.007
brain/ plasma ([7]; guinea pig, IM 50 mg/kg, 24 hr): 0.19 ± 0.045
Tissue level at Cmax, percent of administered dose, Brain ([7]; guinea pig, IM 50 mg/kg): 0.02 ± 0.005% of administered dose
Tissue level at Cmax, percent of administered dose, Heart ([7]; guinea pig, IM 50 mg/kg): 0.07 ± 0.02% of administered dose
Tissue level at Cmax, percent of administered dose, Kidney ([7]; guinea pig, IM 50 mg/kg): 2.87 ± 0.48% of administered dose
Tissue level at Cmax, percent of administered dose, Liver ([7]; guinea pig, IM 50 mg/kg): 7.04 ± 0.61% of administered dose
Tissue level at Cmax, percent of administered dose, Lung ([7]; guinea pig, IM 50 mg/kg): 0.67 ± 0.16% of administered dose
Tissue level at Cmax, percent of administered dose, Spleen ([7]; guinea pig, IM 50 mg/kg): 0.03 ± 0.01% of administered dose
brain-to-plasma ratio at later time points over ratio at Tmax ([7]; guinea pig, IM exposure): 3.2 times
brain/ plasma ([7]; guinea pig, IV 10 mg/kg, 0.08 hr (brain Cmax)): 0.04 ± 0.001
brain/ plasma ([7]; guinea pig, IV 10 mg/kg, 0.25 hr): 0.040 ±0.002
brain/ plasma ([7]; guinea pig, IV 10 mg/kg, 0.5 hr): 0.03 ± 0.002
brain/ plasma ([7]; guinea pig, IV 10 mg/kg, 1 hr): 0.02 ± 0.001
brain/ plasma ([7]; guinea pig, IV 10 mg/kg, 2 hr): 0.03 ± 0.003
brain/ plasma ([7]; guinea pig, IV 10 mg/kg, 4 hr): 0.05 ± 0.003
brain/ plasma ([7]; guinea pig, IV 10 mg/kg, 8 hr): 0.09 ± 0.011
brain/ plasma ([7]; guinea pig, IV 10 mg/kg, 24 hr): 0.11 ± 0.035
Tissue level at Cmax, percent of administered dose, Heart ([7]; guinea pig, IV 10 mg/kg): 0.05 ± 0.01% of administered dose
Tissue level at Cmax, percent of administered dose, Kidney ([7]; guinea pig, IV 10 mg/kg): 5.19 ± 0.23% of administered dose
Tissue level at Cmax, percent of administered dose, Liver ([7]; guinea pig, IV 10 mg/kg): 8.76 ± 0.32% of administered dose
Tissue level at Cmax, percent of administered dose, Lung ([7]; guinea pig, IV 10 mg/kg): 0.45 ± 0.04% of administered dose
Tissue level at Cmax, percent of administered dose, Spleen ([7]; guinea pig, IV 10 mg/kg): 0.04 ± 0.01% of administered dose
Tissue level at Cmax, percent of administered dose, Brain ([7]; guinea pig, IV 10 mg/kg, 10 mg/kg): 0.03% of administered dose and 0.03 ± 0.002% of administered dose
brain/ plasma ([7]; guinea pig, IV 50 mg/kg, 0.08 hr (brain Cmax)): 0.09 ± 0.006
brain/ plasma ([7]; guinea pig, IV 50 mg/kg, 0.25 hr): 0.08 ± 0.005
brain/ plasma ([7]; guinea pig, IV 50 mg/kg, 0.5 hr): 0.05 ± 0.003
brain/ plasma ([7]; guinea pig, IV 50 mg/kg, 1 hr): 0.03 ± 0.014
brain/ plasma ([7]; guinea pig, IV 50 mg/kg, 2 hr): 0.03 ± 0.002
brain/ plasma ([7]; guinea pig, IV 50 mg/kg, 4 hr): 0.07 ± 0.004
brain/ plasma ([7]; guinea pig, IV 50 mg/kg, 8 hr): 0.07 ± 0.009
brain/ plasma ([7]; guinea pig, IV 50 mg/kg, 24 hr): 0.18 ± 0.062
Tissue level at Cmax, percent of administered dose, Brain ([7]; guinea pig, IV 50 mg/kg): 0.09 ± 0.01% of administered dose
Tissue level at Cmax, percent of administered dose, Heart ([7]; guinea pig, IV 50 mg/kg): 0.06 ± 0.01% of administered dose
Tissue level at Cmax, percent of administered dose, Kidney ([7]; guinea pig, IV 50 mg/kg): 5.16 ± 0.52% of administered dose
Tissue level at Cmax, percent of administered dose, Liver ([7]; guinea pig, IV 50 mg/kg): 8.60 ± 0.48% of administered dose
Tissue level at Cmax, percent of administered dose, Lung ([7]; guinea pig, IV 50 mg/kg): 0.95 ± 0.12% of administered dose
Tissue level at Cmax, percent of administered dose, Spleen ([7]; guinea pig, IV 50 mg/kg): 0.08 ± 0.01% of administered dose
brain/ plasma ([7]; guinea pig, IV 100 mg/kg, 0.08 hr (brain Cmax)): 0.12 ± 0.006
brain/ plasma ([7]; guinea pig, IV 100 mg/kg, 0.25 hr): 0.10 ± 0.008
brain/ plasma ([7]; guinea pig, IV 100 mg/kg, 0.5 hr): 0.12 ± 0.007
brain/ plasma ([7]; guinea pig, IV 100 mg/kg, 1 hr): 0.05 ± 0.001
brain/ plasma ([7]; guinea pig, IV 100 mg/kg, 2 hr): 0.05 ± 0.005
brain/ plasma ([7]; guinea pig, IV 100 mg/kg, 4 hr): 0.08 ± 0.005
brain/ plasma ([7]; guinea pig, IV 100 mg/kg, 8 hr): 0.08 ± 0.010
brain/ plasma ([7]; guinea pig, IV 100 mg/kg, 24 hr): 0.06 ± 0.008
Tissue level at Cmax, percent of administered dose, Brain ([7]; guinea pig, IV 100 mg/kg): 0.11 ± 0.01% of administered dose
Tissue level at Cmax, percent of administered dose, Heart ([7]; guinea pig, IV 100 mg/kg): 0.05 ± 0.01% of administered dose
Tissue level at Cmax, percent of administered dose, Kidney ([7]; guinea pig, IV 100 mg/kg): 3.81 ± 0.42% of administered dose
Tissue level at Cmax, percent of administered dose, Liver ([7]; guinea pig, IV 100 mg/kg): 8.32 ± 0.42% of administered dose
Tissue level at Cmax, percent of administered dose, Lung ([7]; guinea pig, IV 100 mg/kg): 0.77 ± 0.04% of administered dose
Tissue level at Cmax, percent of administered dose, Spleen ([7]; guinea pig, IV 100 mg/kg): 0.07 ± 0.01% of administered dose
brain/ plasma ([7]; guinea pig, IV 200 mg/kg, 0.08 hr (brain Cmax)): 0.18 ± 0.013
brain/ plasma ([7]; guinea pig, IV 200 mg/kg, 0.25 hr): 0.19 ± 0.012
brain/ plasma ([7]; guinea pig, IV 200 mg/kg, 0.5 hr): 0.27 ± 0.080
brain/ plasma ([7]; guinea pig, IV 200 mg/kg, 1 hr): 0.15 ± 0.028
brain/ plasma ([7]; guinea pig, IV 200 mg/kg, 2 hr): 0.08 ± 0.009
brain/ plasma ([7]; guinea pig, IV 200 mg/kg, 4 hr): 0.08 ± 0.005
brain/ plasma ([7]; guinea pig, IV 200 mg/kg, 8 hr): 0.12 ± 0.010
brain/ plasma ([7]; guinea pig, IV 200 mg/kg, 24 hr): 0.22 ± 0.071
Tissue level at Cmax, percent of administered dose, Heart ([7]; guinea pig, IV 200 mg/kg): 0.08 ± 0.01% of administered dose
Tissue level at Cmax, percent of administered dose, Kidney ([7]; guinea pig, IV 200 mg/kg): 3.65 ± 0.48% of administered dose
Tissue level at Cmax, percent of administered dose, Liver ([7]; guinea pig, IV 200 mg/kg): 5.25 ± 0.32% of administered dose
Tissue level at Cmax, percent of administered dose, Lung ([7]; guinea pig, IV 200 mg/kg): 0.85 ± 0.04% of administered dose
Tissue level at Cmax, percent of administered dose, Spleen ([7]; guinea pig, IV 200 mg/kg): 0.12 ± 0.01% of administered dose
Tissue level at Cmax, percent of administered dose, Brain ([7]; guinea pig, IV 200 mg/kg, 200 mg/kg): 0.18% of administered dose and 0.18 ± 0.01% of administered dose
time of tissue Cmax, all tissues except the liver [7, 14]: 5 to 15 min
time of tissue Cmax, liver [7, 14]: 30 min
heart, percent of the administered dose at Cmax ([7]; mean over the dose range, IV): 0.06%
all other tissues, percent of the administered dose at Cmax ([7]; tissues other than liver and kidney, IV): less than 1%
net flux ratio (NFR) (p-gp (MDR1)): ≤ 1

— publication PMC5810560 (Chemico-biological interactions, 2017)
